Assay results: publication PMC7319089, “Multi-Component Comparative Pharmacokinetics in Rats After Oral Administration of Fructus aurantii Extract, Naringin, Neohesperidin, and Naringin-Neohesperidin” (Frontiers in Pharmacology, 2020)
Where two headings read alike, the source gives them in different places.

Columns and labels:
[1] = Stability of the analytes in rat plasma (QC samples); format: in vitro ADME; conditions: n = 6; for Long-term Stability RE: -20 °C for one month; for Short-term Stability RE: room temperature 24 h; for Free–thaw Stability RE: three cycles -20 °C/room temperature
Experimental: The QC samples were assayed under several different conditions to evaluate the stability of the compounds in rat plasma. For the short-term stability, fresh plasma samples were kept at room temperature for 24 h before the sample preparation. After keeping the samples at room temperature for 24 h, post-preparation stability was tested. Freeze-thaw cycles (-20 °C/room temperature) stability were […] treated at -20°C for freezing-room temperature melting three times (repeated freezing and thawing three times). In each freeze-thaw cycle, the samples were frozen and stored at -20 °C for 24 h, and subsequently thawed at room. To evaluate the long-term stability of QC plasma samples, following storage at -20 °C for one month. The stability data were acceptable when the bias was within ±15% of the actual value ([Yuan et al., 2017]).

[2] = Pharmacokinetics in SD rats after oral administration of FA extract, NA, NHE or NA-NHE (UPLC-MS/MS of plasma, DAS 3.1); format: in vivo, Sprague-Dawley (SD) rats; conditions: for MRT last: read-out: MRT(0-t); for MRT inf: read-out: MRT(0-∞); for Vd/F: read-out: Vz/F; for Cmax: plasma after β-glucuronidase/sulfatase hydrolysis; for AUC(0-t): read-out: AUC(0-t); for Shape of the plasma concentration-time profile: oral administration, naringin and neohesperidin determined as naringenin and hesperetin
Experimental: The 20 μl of β-glucuronidase and 15 μl of sulfatase were added into 50 μl of plasma sample. After vortexed for 30 s, the mixture was incubated at 37°C for 2 h in a water bath, then placed in ice water for 5 min to terminate the reaction ([Xu et al., 2019]). IS solution (20 µl, 5 μg/ml) and acetonitrile (1.0 ml) were added into the mixture and vortexed for 2 min. […] Rats were randomly divided into the following four groups (6 rats in each group): naringin (NA), neohesperidin (NHE), naringin-neohesperidin (NA-NHE), and FA extract group. The oral administration doses were selected according to the literatures ([Tong et al., 2012]; [Yang et al., 2012]; [Committee of National Pharmacopoeia of RP China, 2015]; [Wang et al., 2018]; [Zhang et al., 2018]; [Chen et al., 2019]), the contents of the five components in FA, and the preliminary experiments. The specific doses were as follows: […] The rats had free access to water during the experiment. The blood samples were then immediately centrifuged at 4,000 rpm for 10 min. The plasma was frozen and stored at −80°C until analysis. The plasma concentration of the studied compounds was determined according to the daily calibration curve.

[3] = parameters: method as in Wang et al., 2018; conditions: after orally administering 30 g/kg FA decoction; ref Wang et al., 2018; cited from earlier work
[4] = high QC concentration (3880 / 2946 / 2470 / 836 / 422.4 ng/mL)
[5] = low QC concentration (3.88 / 2.946 / 2.47 / 0.836 / 0.4224 ng/mL)
[6] = middle QC concentration (77.6 / 58.92 / 49.4 / 16.72 / 8.44 ng/mL)
[7] = Sprague-Dawley, rat, plasma, male SD rats, oral FA extract 10.8 g/kg of the original medicinal material, statistical moment parameters, n = 6
[8] = Sprague-Dawley, rat, male SD rats, oral FA extract 10.8 g/kg of the original medicinal material, statistical moment parameters, n = 6
[9] = male SD rats, oral FA extract 10.8 g/kg of the original medicinal material, two-compartment model parameters, n = 6
[10] = male, Sprague-Dawley, rat, plasma, po, 10.8 g/kg, male SD rats, oral FA extract 10.8 g/kg of the original medicinal material, statistical moment parameters, n = 6
[11] = male, Sprague-Dawley, rat, plasma, po, 10.8 g/kg, male SD rats, oral FA extract 10.8 g/kg of the original medicinal material, statistical moment parameters, n = 6, read-out: CLz/F (converted)
[12] = male, Sprague-Dawley, rat, plasma, po, 10.8 g/kg, male SD rats, oral FA extract 10.8 g/kg of the original medicinal material, statistical moment parameters, n = 6, read-out: Tmax
[13] = male, Sprague-Dawley, rat, plasma, po, 10.8 g/kg, male SD rats, oral FA extract 10.8 g/kg of the original medicinal material, statistical moment parameters, n = 6, read-out: t1/2z (converted)
[14] = male, Sprague-Dawley, rat, plasma, po, 10.8 g/kg, male SD rats, oral FA extract 10.8 g/kg of the original medicinal material, two-compartment model parameters, n = 6
[15] = male, Sprague-Dawley, rat, plasma, po, 10.8 g/kg, male SD rats, oral FA extract 10.8 g/kg of the original medicinal material, two-compartment model parameters, n = 6, read-out: CL/F (converted)
[16] = male, Sprague-Dawley, rat, plasma, po, 10.8 g/kg, male SD rats, oral FA extract 10.8 g/kg of the original medicinal material, two-compartment model parameters, n = 6, read-out: t1/2β (converted)
[17] = male SD rats, oral FA extract 10.8 g/kg of the original medicinal material, statistical moment parameters, n = 6

| Long-term Stability RE [1, 4] [%] | Long-term Stability RE [1, 5] [%] | Long-term Stability RE [1, 6] [%] | Short-term Stability RE [1, 4] [%] | Short-term Stability RE [1, 5] [%] | Short-term Stability RE [1, 6] [%] | Free–thaw Stability RE [1, 4] [%] | Free–thaw Stability RE [1, 5] [%] | Free–thaw Stability RE [1, 6] [%] | MRT last [2, 7] [h] | MRT inf [2, 7] [h] | Vd/F [2, 7] [L/kg] | Cmax [2, 8] [ng/mL] | Ka [2, 9] [h⁻¹] | V1/F [2, 9] [L/kg] | t1/2α [2, 9] [h] | AUC(0-inf) [2, 14] [ng·h/mL] | AUC(0-t) [2, 14] [ng·h/mL] | CL/F [2, 15] [mL/min/kg] | half-life [2, 16] [h] | SMILES | also measured |
| --- | --- | --- | --- | --- | --- | --- | --- | --- | --- | --- | --- | --- | --- | --- | --- | --- | --- | --- | --- | --- | --- |
| -7.81 | 5.03 | -8.58 | -13.50 | 4.10 | -9.20 | -12.68 | 7.78 | -10.70 | 11.4 ± 0.37 | 11.7 ± 0.42 | 12.2 ± 1.67 | 425 ± 11.1 | 3.17 ± 0.93 | 7.17 ± 1.40 | 3.47 ± 0.51 | 4420 ± 724 | 4350 ± 705 | 68.2 | 3.86 ± 0.32 | COc1ccc([C@@H]2CC(=O)c3c(O)cc(O)cc3O2)cc1O [Hesperetin, hesperetin] | AUC(0-inf) [2, 10]: 4340 ± 326 ng·h/mL; AUC(0-t) [2, 10]: 4300 ± 315 ng·h/mL; CL/F [2, 11]: 41.7 mL/min/kg; Tmax [2, 12]: 9.67 ± 0.82 h; half-life [2, 13]: 3.4 ± 0.46 h; Shape of the plasma concentration-time profile ([2]; rats): double peaks |
| 6.85 | 7.62 | 3.19 | 7.43 | 4.71 | 1.55 | 7.63 | 5.77 | 0.71 | 5.17 ± 0.34 | 6.57 ± 0.95 | 9.36 ± 3.56 | 3360 ± 91 | 2.05 ± 0.46 | 4.30 ± 1.14 | 6.61 ± 0.86 | 12300 ± 2590 | 12100 ± 2760 | 7.5 | 6.91 ± 1.05 | COc1ccc2ccc(=O)oc2c1CC(O)C(C)(C)O (centres unmarked) [Meranzin hydrate, meranzin hydrate] | AUC(0-inf) [2, 10]: 11600 ± 2760 ng·h/mL; AUC(0-t) [2, 10]: 11100 ± 2820 ng·h/mL; CL/F [2, 11]: 16.2 mL/min/kg; Tmax [2, 12]: ~1 h; half-life [2, 13]: > 6.5 h |
| -7.37 | -10.98 | -13.52 | -2.81 | -6.25 | -8.40 | -6.01 | -9.71 | 11.07 | 4.82 ± 0.76 | 6.39 ± 2.22 | 477 ± 70.2 | 27.7 ± 2.85 | 2.18 ± 0.97 | 5.91 ± 1.12 | 6.39 ± 0.11 | 87.8 ± 22.9 | 84.4 ± 22.5 | 1200 | 6.48 ± 0.38 | COc1ccc2ccc(=O)oc2c1CC1OC1(C)C (centres unmarked) [Meranzin, meranzin] | Tmax [2, 17]: 0.92 ± 0.13 h; t1/2z [2, 17]: 6.52 ± 0.63 h; AUC(0-inf) [2, 10]: 80.4 ± 15.5 ng·h/mL; AUC(0-t) [2, 10]: 76.9 ± 14.7 ng·h/mL; CL/F [2, 11]: 2310 mL/min/kg; Tmax [2, 12]: ~1 h; half-life [2, 13]: > 6.5 h |
| – | – | – | – | – | – | – | – | – | – | – | – | – | – | 0.82 ± 0.06 | – | 20900 ± 3010 | 20700 ± 3010 | 13.8 | 2.65 ± 0.18 | C[C@@H]1O[C@@H](O[C@H]2[C@H](Oc3cc(O)c4c(c3)O[C@H](c3ccc(O)cc3)CC4=O)O[C@H](CO)[C@@H](O)[C@@H]2O)[C@H](O)[C@H](O)[C@H]1O [NA, naringin] | Detection in rat plasma [3]: could not been detected; Shape of the plasma concentration-time profile ([2]; rats): Double-peak phenomenon |
| -9.76 | -0.84 | 12.09 | -13.49 | -3.02 | 14.81 | -10.94 | -4.36 | 8.14 | 9.71 ± 0.56 | 9.75 ± 0.56 | 2.06 ± 0.29 | 2450 ± 226 | 1.94 ± 0.37 | 0.82 ± 0.06 | 2.63 ± 0.39 | 20900 ± 3010 | 20700 ± 3010 | 13.8 | 2.65 ± 0.18 | O=C1C[C@@H](c2ccc(O)cc2)Oc2cc(O)cc(O)c21 [Naringenin, naringenin] | AUC(0-inf) [2, 10]: 19700 ± 2630 ng·h/mL; AUC(0-t) [2, 10]: 19600 ± 2620 ng·h/mL; CL/F [2, 11]: 9.33 mL/min/kg; Tmax [2, 12]: 9.33 ± 1.03 h; half-life [2, 13]: 2.56 ± 0.17 h; Shape of the plasma concentration-time profile ([2]; rats): double peaks |
| -3.36 | 5.83 | 6.71 | 0.80 | 7.01 | 7.89 | -1.72 | 2.21 | 10.46 | 4.23 ± 0.5 | 4.8 ± 0.99 | 151 ± 47 | 130 ± 4.78 | 0.69 ± 0.25 | 6.80 ± 1.24 | 4.40 ± 0.34 | 473 ± 63.1 | 472 ± 62.6 | 134 | 4.49 ± 0.57 | COc1ccc(-c2cc(=O)c3c(OC)c(OC)c(OC)c(OC)c3o2)cc1OC [Nobiletin, nobiletin] | AUC(0-t) ([2]; Sprague-Dawley, rat, plasma, po, 10.8 g/kg, rats, oral FA extract, unit inferred): 473 ± 119 ng·h/mL; AUC(0-inf) [2, 10]: 480 ± 117 ng·h/mL; AUC(0-t) [2, 10]: 473 ± 119 ng·h/mL; CL/F [2, 11]: 393 mL/min/kg; Tmax [2, 12]: 1.17 ± 0.26 h; half-life [2, 13]: 2.1 ± 0.37 h |
